{"source": "patent US12616750B2", "about": "“Combination therapy utilizing DNA alkylating agents and ATR inhibitors” (Merck Patent GmbH, priority 2018, dated 2026)", "key": {"[1]": {"experiment": "Xenograft experiment, tolerability (body weight)", "set-up": "species or system H2d Rag2 mice", "details": "mouse, in vivo", "protocol": "The tolerability of the anti-cancer treatment was assessed considering the overall condition of the animal as well as body-weight changes of the mice (FIG. 22)."}, "NCI-N87 xenografts": {"tested_on": "NCI-N87 xenografts", "experiment": "Xenograft experiment, therapeutic efficacy", "details": "single agent: αHER2-6 1.0 mg/kg i.v. single dose; ATRi 50 mg/kg per oral once daily 14 d", "method": "Female H2d Rag2 mice, 6-8 weeks old, were obtained from Taconic Biosciences, LLC. A xenograft was established by harvesting NCI-N87 cells from cell culture, mixing the cells 1:1 with Matrigel and injecting 2.5×10^6 cells subcutaneously into the flank of the mice. The tumor volume was assessed twice weekly by length measurements in two dimensions using calipers. The volume was calculated following eq. 3 where the length L is the longest tumor length and W is the shortest tumor length.\nAfter an initial tumor growth phase, mice were randomized and assigned to treatment groups comprising 10 animals. The initial tumor volume amounted to approximately 100 mm^3 when treatment started. Vehicle treated mice obtained a solution of 0.5% Methocel, 0.25% Tween-20 in water. […] Mice were weighted twice weekly to assess the body-weight during the treatment period. The criteria to terminate the study for single animals were skin ulcerations, tumor length exceeding 15 mm or tumor exceeding 10% of the body weight. In addition, body weight loss was a criterium for termination if body weight loss exceeded 20% accompanied with a haggard appearance, body weight loss exceeded 20% on three successive days or if body weight loss exceeded 25% of the adjusted body weight."}, "MDA-MB-453 cells [2]": {"tested_on": "MDA-MB-453 cells", "experiment": "Dose-matrix combination assay (synergy score, Loewe model)", "type": "cell-based", "details": "MDA-MB-453", "protocol": "(§1) Dose-matrix combination assays were performed as described above, but performed in opague 384-well plates (2k viable cells/well). Compounds were added using Tecan D300e liquid. Protein solutions were supplemented with 0.3% Tween-20 (final) and diluted to 1 μM. All wells were normalized to the maximum amount of DMSO (maximum 0.4%) or Tween-20 added. Read out of luminescence was performed on Envision 2104 Multilabel Reader (Perkin Elmer) and data were evaluated using Genedata Screener® version 14.0.6-Standard (Genedata AG). Luminescence values were normalized to luminescence of non-treated cells and dose-response was fitted using Smart Fit. Synergy scores were calculated using LOEWE synergy model.\n(§2) The screening of synergistic drug combinations can be accomplished by performing a dose-matrix assay. Therefore, two drugs are serial diluted and mixed at every dose level, yielding a dose-matrix. The drug combination can be additive if the effects of the combination are identical to the added effects of the single agents. However, the effects of the combination might also be stronger than the activity of the single agents. This scenario is termed synergy, whereas weaker combination effects compared to the single agents are termed antagonism. A dose-matrix assay is depicted schematically in FIG. 2 which illustrates the outcomes of a dose-matrix assay: additivity, antagonism and synergy."}, "NCI-N87 cells": {"tested_on": "NCI-N87 cells", "experiment": "Dose-matrix combination assay (synergy score, Loewe model)", "type": "cell-based", "details": "NCI-N87", "protocol": "as §1, §2"}, "MDA-MB-468 cells [3]": {"tested_on": "MDA-MB-468 cells", "experiment": "Dose-matrix combination assay (synergy score, Loewe model)", "type": "cell-based", "details": "combination with DUBA; MDA-MB-468, 6 d; S ± SD; cutoff ±1", "protocol": "as §1, with “Read out of luminescence was performed on Envision 2104 Multilabel Reader (Perkin Elmer) and data were evaluated using Genedata Screener® version 14.0.6-Standard (Genedata AG).” left out\nas §2\n(§3) The screening was conducted by serial diluting the duocarmycin derivative DUBA (10) and the DDR inhibitors. […] DUBA was combined in a dose-matrix assay with hycanthone. The cell viability was measured after 6 d of treatment using the CellTiter-Glo assay kit. The signals of the cell viability assay were normalized to untreated cells and fitted. […] By subtracting the modeled data from the fitted data, an excess matrix was generated. The excess matrix can be considered as a visualization of the differences between model and actual data which also highlights spots of either high synergy or antagonism. The quantification of the combination effects, however, was performed by calculating synergy scores. […] Besides synergy score, the potency of the drugs in monotherapy was obtained from these experiments. […] The potency was obtained from this dose-response curve.\n(§4) The scattering of S was determined in a sham control experiment to define a cutoff for classifying a combination as truly synergistic or antagonistic. Thus seven different compounds were combined with itself on four different cell lines and the three-σ confidence interval was calculated around the mean of the measurement. […] For the sake of convenience, the cutoff was set to a value of ±1.\n(§5) Synergy scores (S) were obtained from the combination experiments that indicated additivity […] if model and actual response were equal. […] The magnitude of the score determined the extent of the combination effects."}, "HCC-1954 cells [4]": {"tested_on": "HCC-1954 cells", "experiment": "Dose-matrix combination assay (synergy score, Loewe model)", "type": "cell-based", "details": "combination with DUBA", "protocol": "as §1, with “Read out of luminescence was performed on Envision 2104 Multilabel Reader (Perkin Elmer) and data were evaluated using Genedata Screener® version 14.0.6-Standard (Genedata AG).” left out\nas §2, §3, §4, §5"}, "SK-OV-3 cells": {"tested_on": "SK-OV-3 cells", "experiment": "MNED curve-shift assay", "type": "cell-based", "text": "(§6) Therefore a curve-shift assay system was established. In a first step, a dose-response curve (DRC) is obtained by treating a certain cell line with an inhibitor. The maximum non-efficacious dose (MNED) can be derived from this DRC. MNED is the highest dose, that can be added to a certain cell line without affecting the viability. The activity of the ADC is confirmed in a separate experiment. Finally, a combination experiment can be conducted. Therefore, the ADC and ADC plus inhibitor at MNED are added to the cells. The inhibitor is tested in parallel at MNED as a control. Due to the application of inhibitor at MNED, no reduction in cell viability caused by the inhibitor is expected. Three outcomes are possible: 1) The combination of ADC plus inhibitor is equipotent as the ADC only. […] Such a result would be interpreted as depotentiation. […] In this case, the potency of the ADC is potentiated.\n(§7) Potentiation effects are expressed as dose-reduction indices (DRI), which can be calculated by dividing the IC50-value of ADC by the IC50-value of ADC plus inhibitor according to eq. 1\n(§8) Curve-shift assays were conducted as follows: The cell number and viability was determined using ViCell™-XR (Beckman Coulter) and seeded in opague 96-well plate (10k viable cells/well). After seeding, the plate was incubated (37° C., 5% C02) in a humid chamber overnight. Compounds were diluted in the appropriate medium, added to the cells and the plate was incubated (37° C., 5% CO2, 6 d) in a humid chamber. After 30 min equilibration at room temperature, CellTiter-Glo reagent (Promega) was added. After the plate was shaken (3 min, 550 rpm, rt) it was incubated (10 min, rt) and luminescence was read on a synergy 4 plate reader (BioTek). Evaluation was performed using GraphPad Prism version 6.05. Therefor luminescence values were normalized to luminescence values of non-treated cells and dose-response was fitted with 4-point logistic fit.\n(§9) The determination of dose-reduction indices (DRI) in a maximum non-efficacious dose (MNED) curve-shift assay is a 3-step process as depicted exemplarily in FIG. 13. The cytotoxicity of the ADC is confirmed in a cell viability assay in an initial step. […] In the second step. the MNED of the ATRi was determined. […] In order to obtain a full […] for the combination, the starting concentration of the ADC was lowered compared to the experiment in step 1."}, "MDA-MB-468 cells [5]": {"tested_on": "MDA-MB-468 cells", "experiment": "MNED curve-shift assay", "type": "cell-based", "text": "as §6, §7, §8, §9"}, "MDA-MB-453 cells [6]": {"tested_on": "MDA-MB-453 cells", "experiment": "MNED curve-shift assay", "type": "cell-based", "text": "as §6, §7, §8, §9"}, "HCC-1954 cells [7]": {"tested_on": "HCC-1954 cells", "experiment": "MNED curve-shift assay", "type": "cell-based", "details": "HCC-1954", "text": "as §6, §7, §8, §9"}, "SK-BR-3 cells": {"tested_on": "SK-BR-3 cells", "experiment": "MNED curve-shift assay", "type": "cell-based", "text": "as §6, §7, §8, §9"}, "MDA-MB-361 cells": {"tested_on": "MDA-MB-361 cells", "experiment": "MNED curve-shift assay", "type": "cell-based", "text": "as §6, §7, §8, §9"}, "JIMT-1 cells": {"tested_on": "JIMT-1 cells", "experiment": "MNED curve-shift assay", "type": "cell-based", "text": "as §6, §7, §8, §9"}, "Calu-3 cells": {"tested_on": "Calu-3 cells", "experiment": "MNED curve-shift assay", "type": "cell-based", "text": "as §6, §7, §8, §9"}, "BT-474 cells": {"tested_on": "BT-474 cells", "experiment": "MNED curve-shift assay", "type": "cell-based", "text": "as §6, §7, §8, §9"}}}
{"smiles": "C[C@@H]1COCCN1c1cc(C2(S(C)(=N)=O)CC2)nc(-c2ccnc3[nH]ccc23)n1", "note": "(stereo partly drawn) [AZD6738, 4-{4-[(3R)-3-methylmorpholin-4-yl]-6-[1-(S-methylsulfonimidoyl)cyclopropyl]pyrimidin-2-yl}-1H-pyrrolo[2,3-b]pyridine]", "values": [{"measurement": "tolerability (conclusion)", "setting": "[1]", "value": "well tolerated"}, {"measurement": "tumor response (tumor volume)", "setting": "NCI-N87 xenografts", "value": "not statistically different from the vehicle-treated group"}, {"measurement": "Synergy score S", "setting": "MDA-MB-453 cells [2]; combination with ADC αHER2-2", "value": "9.1±2.1"}, {"measurement": "Synergy score S", "setting": "MDA-MB-453 cells [2]; combination with ADC αHER2-6", "value": "9.5±0.9"}, {"measurement": "Synergy score S", "setting": "NCI-N87 cells; combination with ADC αHER2-2", "value": "3.7±0.7"}, {"measurement": "Synergy score S", "setting": "NCI-N87 cells; combination with ADC αHER2-6", "value": "3.0±0.05"}, {"measurement": "Synergy score S", "setting": "MDA-MB-468 cells [3]", "value": "5.7±1.0"}, {"measurement": "Synergy score S", "setting": "HCC-1954 cells [4]; HCC-1954, 6 d, S ± SD, cutoff ±1", "value": "6.9±0.7"}, {"measurement": "Synergy score S", "setting": "HCC-1954 cells [4]; cell line not given (screen on HCC-1954 or MDA-MB-468)", "value": 7.6}, {"measurement": "additional cancer cells killed versus additive (Loewe) prediction", "setting": "HCC-1954 cells [4]; hotspot 160 to 630 nM AZD6738 and 0.16 to […] DUBA", "value": "up to 69%"}, {"measurement": "MNED (maximum non-efficacious dose)", "setting": "SK-OV-3 cells", "value": 150, "unit": "nM"}, {"measurement": "MNED (maximum non-efficacious dose)", "setting": "MDA-MB-468 cells [5]", "value": 300, "unit": "nM"}, {"measurement": "MNED (maximum non-efficacious dose)", "setting": "MDA-MB-453 cells [6]", "value": 111, "unit": "nM"}, {"measurement": "MNED (maximum non-efficacious dose)", "setting": "HCC-1954 cells [7]", "value": 250, "unit": "nM"}, {"measurement": "MNED (maximum non-efficacious dose)", "setting": "SK-BR-3 cells", "value": 150, "unit": "nM"}, {"measurement": "MNED (maximum non-efficacious dose)", "setting": "MDA-MB-361 cells", "value": 111, "unit": "nM"}, {"measurement": "MNED (maximum non-efficacious dose)", "setting": "JIMT-1 cells", "value": 80, "unit": "nM"}, {"measurement": "MNED (maximum non-efficacious dose)", "setting": "Calu-3 cells", "value": 400, "unit": "nM"}, {"measurement": "MNED (maximum non-efficacious dose)", "setting": "BT-474 cells", "value": 1000, "unit": "nM"}]}
